Key:
[1] = test system: airway responsiveness to aerosolized carbachol after exposure to ascaris suum; test: Airway responsiveness to aerosolized carbachol (PC150) before and after Ascaris suum challenge in allergic conscious sheep; assay type: in vivo; settings: 500 μg aerosolized, PC150 of carbachol 24 hours prior to and 24 post ascaris suum exposure, closer to unity is better
Description: (§1) The measurement of biological activity in a pulmonary model of allergic asthma and lung inflammation was undertaken in adult conscious sheep. The methodology was essentially as described by W. M. Abraham et al. (Bull. Eur. Physiopathol. Respir., 22, 387 (1986)). Adult sheep with a natural cutaneous reaction to Ascaris Suum extract and who respond to inhalation challenge with Ascaris Suum with both an acute bronchoconstriction and a late bronchial obstruction were used in the study.
Airway responsiveness was measured by calculation of a PC150 value. The PC150 is the dose of aerosolized carbachol which produces a 150% increase in sR1 above baseline. The doses of carbachol were administered in an ascending dose-response fashion with each dose being administered for a 10 breath duration. The PC150 value was determined for each animal 24 hours prior to exposure to ascaris suum and again 24 post exposure. The difference in PC150 values represented a change in airway responsiveness. The closer the post challenge to prechallenge ratio to unity the better the effect of the particular compound.
(§2) Each test drug was aerosolized to an animal 30 minutes prior to challenge with ascaris suum.

[2] = test system: acute bronchoconstriction and late bronchial obstruction after inhalation challenge with Ascaris Suum; test: Ascaris suum-induced immediate and late bronchial response (mean lung resistance sR1) in allergic conscious sheep; assay type: in vivo; settings: for protection of the immediate response / protection of the peak late response: 500 μg aerosolized 30 minutes prior to ascaris suum challenge, referenced to historical controls, n=3
Description: as §1
Unsedated sheep were intubated and measurement of airway mechanics were computed and recorded on a digital computer utilizing inputs of transpulmonary pressure and tracheal airflow recordings. Each animal was exposed to an aerosol of ascaris suum, diluted to produce an immediate and significant increase in mean lung resistance (sR1) of approximately 600-700% above baseline. […] This second response is known as the late response. sR1 returned to baseline by 24 hours. Each animal was exposed to an aerosol of ascaris suum at a minimum of two week interval. […]
as §2

| Compound | post challenge/prechallenge ratio of PC150 values (airway hyperresponsiveness) [1] | protection of the immediate response [2] [%] | protection of the peak late response [2] [%] | protection against lung function changes due to aerosol challenge of ascaris suum ([2]; overall comparison with the parent steroid) |
| --- | --- | --- | --- | --- |
| 6α-Fluoro-11β-hydroxy-16α,17-((1-methylethylidene)bis(oxy))pregna-1,4-diene-3,20-dione-21-(3-methyl-3-nitrosothio)-butanoate [Example 1] | 1.18±0.06 | 59±14 | 89±2 | better protection |
| CC1(C)O[C@@H]2C[C@H]3[C@@H]4C[C@H](F)C5=CC(=O)C=C[C@]5(C)[C@H]4[C@@H](O)C[C@]3(C)[C@]2(C(=O)CO)O1 [6α-Fluoro-11β, 21-dihydroxy-16α, 17α-((1-methylethylidene)bis(oxy))pregna-1,4-diene-3,20-dione, reference compound] | 0.98±0.10 | 16±21 | 83±7 |  |

— patent US7345037B2, “Nitrosated and nitrosylated compounds and compositions and their use for treating respiratory disorders” (Nitromed, Inc., priority 1996, dated 2008)
